Measured values from patent US10358434B2, “2-(3-pyridinyl)-1H-benzimidazole derivative compound and medicament containing same” (NIHON MEDI-PHYSICS CO., LTD., priority 2014, dated 2019).

Experiments:
[1] = test system: human adrenal gland section expressing aldosterone-producing adenoma; test: In vitro autoradiography using human adrenal adenoma; type: binding
Outline: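 Frozen 7-μm sections of human adrenal bearing aldosterone-producing adenoma were immersed 10 min in radioligand (5-33 kBq/mL) in PBS with 1% fatty-acid-free BSA, washed, then exposed to imaging plates for 16-20 h. Equal-area ROI PSL in adenoma (B2) versus normal cortex (B1) gave B2/B1, corrected for nuclide half-life, added activity and exposure time.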

[2] = In vivo kinetics experiment (radioactivity distribution); design: species or system Wistar male rat; conditions: rat; for Adrenal gland/blood ratio of radioactivity accumulation / Adrenal gland/fat ratio of radioactivity accumulation / Adrenal gland/kidney ratio of radioactivity accumulation / Adrenal gland/liver ratio of radioactivity accumulation / Adrenal gland/muscle ratio of radioactivity accumulation / Adrenal gland/small intestine ratio of radioactivity accumulation / Radioactivity distribution Adrenal gland / Radioactivity distribution Bladder (including urine) / Radioactivity distribution Blood / Radioactivity distribution Fat / Radioactivity distribution Femur / Radioactivity distribution Heart / Radioactivity distribution Kidney / Radioactivity distribution Large intestine / Radioactivity distribution Liver / Radioactivity distribution Lung / Radioactivity distribution Muscle (lower limbs) / Radioactivity distribution Remaining whole body / Radioactivity distribution Small intestine / Radioactivity distribution Spleen / Radioactivity distribution Stomach / Radioactivity distribution Testis / Radioactivity distribution Whole brain: caudal vein
Outline: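 Male Wistar rats (9 weeks) under isoflurane received approximately 1 to 3.7 MBq radiotracer in saline with 1 w/v % ascorbic acid by tail-vein injection. At 10, 30 and 60 min, rats were exsanguinated; blood, organs and remaining body weighed and counted, giving % ID/g and adrenal-to-tissue ratios.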

[3] = Plasma stability evaluation (TLC analysis); type: in vitro ADME; conditions: 37° C., 60 minutes
Outline: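 Radiolabelled compounds were incubated in heparin-treated pooled normal human plasma at 37° C for 60 minutes. After methanol deproteinization and centrifugation, stability was assessed by TLC under the conditions used for each compound's synthesis.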

Fc1cc2nc(-c3cncc(Cn4ccnc4)c3)n(CC[18F])c2cc1Cl [[^18F] 100, 6-Chloro-5-fluoro-1-(2-[^18F]fluoroethyl)-2-[5-(imidazol-1-ylmethyl)pyridin-3-yl]benzimidazole]
accumulation of radioactivity in adrenal gland section (autoradiogram) ([1]; FIGS. 18 to 31): accumulation of radioactivity was selectively observed in a region in which aldosterone-producing adenoma had been pathologically observed | B2/B1 accumulation ratio ([1]; section of FIG. 17(a)): 5.08 | B2 (PSL value, aldosterone-producing adenoma) ([1]; section of FIG. 17(a), site 71a): 16480 | B1 (PSL value, normal adrenal cortex) ([1]; section of FIG. 17(a), site 72a): 3241 | accumulation of radioactivity in adrenal gland vs blood and peripheral tissues ([2]; Tables 9 to 22): high accumulation of radioactivity in adrenal gland was observed, in comparison to in blood and peripheral tissues | Adrenal gland/blood ratio of radioactivity accumulation ([2]; 10 min after administration): 137.96 ± 52.72 | Adrenal gland/fat ratio of radioactivity accumulation ([2]; 10 min after administration): 141.33 ± 57.27 | Adrenal gland/kidney ratio of radioactivity accumulation ([2]; 10 min after administration): 6.14 ± 2.01 | Adrenal gland/liver ratio of radioactivity accumulation ([2]; 10 min after administration): 1.93 ± 0.69 | Adrenal gland/muscle ratio of radioactivity accumulation ([2]; 10 min after administration): 63.25 ± 34.56 | Adrenal gland/small intestine ratio of radioactivity accumulation ([2]; 10 min after administration): 9.89 ± 2.73 | Radioactivity distribution Adrenal gland ([2]; 10 min after administration): 10.19 ± 3.35 % ID/g | Radioactivity distribution Bladder (including urine) ([2]; 10 min after administration): 0.22 ± 0.08 % ID/g | Radioactivity distribution Blood ([2]; 10 min after administration): 0.08 ± 0.01 % ID/g | Radioactivity distribution Fat ([2]; 10 min after administration): 0.08 ± 0.02 % ID/g | Radioactivity distribution Femur ([2]; 10 min after administration): 0.63 ± 0.08 % ID/g | Radioactivity distribution Heart ([2]; 10 min after administration): 0.32 ± 0.08 % ID/g | Radioactivity distribution Kidney ([2]; 10 min after administration): 1.70 ± 0.40 % ID/g | Radioactivity distribution Large intestine ([2]; 10 min after administration): 0.15 ± 0.02 % ID/g | Radioactivity distribution Liver ([2]; 10 min after administration): 5.39 ± 0.99 % ID/g | Radioactivity distribution Lung ([2]; 10 min after administration): 0.63 ± 0.08 % ID/g | Radioactivity distribution Muscle (lower limbs) ([2]; 10 min after administration): 0.23 ± 0.24 % ID/g | Radioactivity distribution Remaining whole body ([2]; 10 min after administration): 0.22 ± 0.03 % ID/g | Radioactivity distribution Small intestine ([2]; 10 min after administration): 1.03 ± 0.14 % ID/g | Radioactivity distribution Spleen ([2]; 10 min after administration): 3.85 ± 0.65 % ID/g | Radioactivity distribution Stomach ([2]; 10 min after administration): 0.56 ± 0.17 % ID/g | Radioactivity distribution Testis ([2]; 10 min after administration): 0.05 ± 0.01 % ID/g | Radioactivity distribution Whole brain ([2]; 10 min after administration): 0.01 ± 0.00 % ID/g | Adrenal gland/blood ratio of radioactivity accumulation ([2]; 30 min after administration): 249.08 ± 51.81 | Adrenal gland/fat ratio of radioactivity accumulation ([2]; 30 min after administration): 352.33 ± 208.06 | Adrenal gland/kidney ratio of radioactivity accumulation ([2]; 30 min after administration): 18.18 ± 4.58 | Adrenal gland/liver ratio of radioactivity accumulation ([2]; 30 min after administration): 3.58 ± 0.82 | Adrenal gland/muscle ratio of radioactivity accumulation ([2]; 30 min after administration): 179.35 ± 63.77 | Adrenal gland/small intestine ratio of radioactivity accumulation ([2]; 30 min after administration): 11.12 ± 2.64 | Radioactivity distribution Adrenal gland ([2]; 30 min after administration): 19.61 ± 4.29 % ID/g | Radioactivity distribution Bladder (including urine) ([2]; 30 min after administration): 1.17 ± 0.77 % ID/g | Radioactivity distribution Blood ([2]; 30 min after administration): 0.08 ± 0.01 % ID/g | Radioactivity distribution Fat ([2]; 30 min after administration): 0.07 ± 0.02 % ID/g | Radioactivity distribution Femur ([2]; 30 min after administration): 0.71 ± 0.18 % ID/g | Radioactivity distribution Heart ([2]; 30 min after administration): 0.27 ± 0.06 % ID/g | Radioactivity distribution Kidney ([2]; 30 min after administration): 1.10 ± 0.16 % ID/g | Radioactivity distribution Large intestine ([2]; 30 min after administration): 0.20 ± 0.02 % ID/g | Radioactivity distribution Liver ([2]; 30 min after administration): 5.55 ± 0.80 % ID/g | Radioactivity distribution Lung ([2]; 30 min after administration): 0.43 ± 0.07 % ID/g | Radioactivity distribution Muscle (lower limbs) ([2]; 30 min after administration): 0.12 ± 0.03 % ID/g | Radioactivity distribution Remaining whole body ([2]; 30 min after administration): 0.18 ± 0.03 % ID/g | Radioactivity distribution Small intestine ([2]; 30 min after administration): 1.78 ± 0.21 % ID/g | Radioactivity distribution Spleen ([2]; 30 min after administration): 4.57 ± 1.32 % ID/g | Radioactivity distribution Stomach ([2]; 30 min after administration): 0.73 ± 0.11 % ID/g | Radioactivity distribution Testis ([2]; 30 min after administration): 0.06 ± 0.01 % ID/g | Radioactivity distribution Whole brain ([2]; 30 min after administration): 0.01 ± 0.00 % ID/g | Adrenal gland/blood ratio of radioactivity accumulation ([2]; 60 min after administration): 247.32 ± 64.42 | Adrenal gland/fat ratio of radioactivity accumulation ([2]; 60 min after administration): 397.01 ± 160.35 | Adrenal gland/kidney ratio of radioactivity accumulation ([2]; 60 min after administration): 18.96 ± 4.83 | Adrenal gland/liver ratio of radioactivity accumulation ([2]; 60 min after administration): 5.20 ± 1.19 | Adrenal gland/muscle ratio of radioactivity accumulation ([2]; 60 min after administration): 236.89 ± 62.76 | Adrenal gland/small intestine ratio of radioactivity accumulation ([2]; 60 min after administration): 7.66 ± 2.34 | Radioactivity distribution Adrenal gland ([2]; 60 min after administration): 21.34 ± 5.24 % ID/g | Radioactivity distribution Bladder (including urine) ([2]; 60 min after administration): 2.41 ± 0.97 % ID/g | Radioactivity distribution Blood ([2]; 60 min after administration): 0.09 ± 0.01 % ID/g | Radioactivity distribution Fat ([2]; 60 min after administration): 0.06 ± 0.03 % ID/g | Radioactivity distribution Femur ([2]; 60 min after administration): 0.77 ± 0.13 % ID/g | Radioactivity distribution Heart ([2]; 60 min after administration): 0.26 ± 0.03 % ID/g | Radioactivity distribution Kidney ([2]; 60 min after administration): 1.13 ± 0.17 % ID/g | Radioactivity distribution Large intestine ([2]; 60 min after administration): 0.38 ± 0.22 % ID/g | Radioactivity distribution Liver ([2]; 60 min after administration): 4.11 ± 0.66 % ID/g | Radioactivity distribution Lung ([2]; 60 min after administration): 0.45 ± 0.05 % ID/g | Radioactivity distribution Muscle (lower limbs) ([2]; 60 min after administration): 0.09 ± 0.01 % ID/g | Radioactivity distribution Remaining whole body ([2]; 60 min after administration): 0.18 ± 0.02 % ID/g | Radioactivity distribution Small intestine ([2]; 60 min after administration): 2.85 ± 0.37 % ID/g | Radioactivity distribution Spleen ([2]; 60 min after administration): 4.40 ± 1.15 % ID/g | Radioactivity distribution Stomach ([2]; 60 min after administration): 1.02 ± 0.19 % ID/g | Radioactivity distribution Testis ([2]; 60 min after administration): 0.08 ± 0.01 % ID/g | Radioactivity distribution Whole brain ([2]; 60 min after administration): 0.02 ± 0.00 % ID/g | stability in human plasma [3]: hardly metabolized and decomposed in the plasma | Radiochemical purity after incubation in human plasma ([3]; TLC analysis): 97%
